Marks after values point to notes of the source that are not given here.
How the values were obtained:
[1] = tested on: adjuvant articular swelling; assay: Rat adjuvant arthritis: inhibitory effect against articular swelling; assay type: in vivo
Experimental: (§1) A rat adjuvant arthritis model, which is commonly used in an in vivo evaluation for antirheumatic agents, was employed in this evaluation. To prepare an arthritis model, heat-killed cells of Mycobacterium butyricum (Difco) were suspended in mineral oil, and a rat was intradermally injected with 0.05 mL of 1% solution of the suspension at the plantar of left hind leg.
Using the above arthritis model, Compound Ia was administered to the animal for 22 days after injection of the adjuvant, and the articular swelling was measured from time to time to evaluate the prophylactic inhibitory effect. On the other hand, the curative effect was evaluated by administering Compound Ia to animals from Day 15 to Day 25 after injection of the adjuvant and measuring the articular swelling in injected and non-injected legs. Inhibitory and curative effects were expressed by effective dose for 30% inhibition (ED30).

PGE2 production = assay: Inhibition of PGE2 production due to IL-1β stimulation in mouse myeloblast culture; assay type: cell-based; settings: 2.5 ng/mL human IL-1β, six days, RIA
Experimental: (§2) It has been known that the enhanced formation of osteoclast is induced in the mouse myeloblast culture by addition of IL-1β and such effect is derived from PGE2 production through COX-2 induction. In order to determine inhibitory effect of the compounds against such effect, myeloblasts were collected from a ddY male mice, plated in a 48-well plate at 1×10^6/well and incubated. After culturing for six days in an α-MEM medium containing 10% fetal bovine serum, to which 2.5 ng/mL of human IL-1β and a predetermined concentration of the compounds were added, PGE2 level in the supernatant was measured by RIA kit. On the other hand, cells adhering on the plate were immobilized, and an activity staining of tartaric acid resistant acid phosphatase (TRAP), which is a marker enzyme for osteoclast, was conducted, whereby the number of TRAP positive cells having multinucleate (N>3) per well was counted as osteoclast.

NZB/KN mouse = assay: Inhibitory effect against bone destruction in spontaneous rheumatic model NZB/KN mouse; assay type: in vivo; settings: male NZB/KN mice, oral, five times a week
From the text: To male NZB/KN mice, in which a human RA-like pathology arises spontaneously due to their immunologically abnormal background, was orally administered Compound Ia once in a day (five times a week) for six months beginning at two-month-age. The mice which reached six month old (some were eight month old) were full-length radiographed under anesthetization and predetermined conditions using a soft X-ray generator (OM-55, Omic). According to the method of Nakamura, et. al. [Arthritis. Rheum., 34, 171-179 (1991)], the number of the lesions observed in the bones and articular regions in the whole body were counted on the basis of the soft X-ray radiographed films, and the total number of the observed lesions were defined as the number of the bone disorders in the animal. The results were shown using mean±standard deviation, and significance test was performed according to Dunnett-t test (*p<0.05, ** p<0.01: vs. vehicle group).

[2] = tested on: IL-6 production from neutrophil; assay: Inhibitory activity against IL-6 production, LPS-stimulated neutrophil fraction from human peripheral blood; assay type: cell-based; settings: 10 μg/mL LPS, 16-18 hours, RIA
[3] = tested on: osteoclast formation in mouse myeloblast; assay: Inhibition of IL-1β-enhanced formation of osteoclast in mouse myeloblast culture; assay type: cell-based; settings: 2.5 ng/mL human IL-1β, six days, TRAP positive multinucleate cells
Experimental: as §2

[4] = tested on: IL-6 level in articular tissue; assay: Rat adjuvant arthritis: repressive effect on the IL-6 level in articular tissue; assay type: in vivo; settings: oral, 18 days after adjuvant injection, non-injected leg
Experimental: Another adjuvant arthritis model animal was prepared apart from the above experiments, and a compound was orally administered to the animal for 18 days after the adjuvant injection. The non-injected leg was then amputated under anesthetization, epidermis of the amputated leg was ablated, the leg was frozen in liquid nitrogen, and the arthrosis part was crushed by a crushing machine. To a measured quantity of the crushed arthrosis, 3 mL of ice-cold PBS was added and homogenized with a homogenizer under ice-cooling. The resultant homogenate was centrifuged at 4° C. for 20 minutes at 3,000 rpm to collect the supernatant, which was then passed through a 0.45 μm filter to prepare a sample. The sample and MH60 BSF2 cells (derived from mouse, require IL-6) were incubated on a 96-well plate under defined conditions, and the absorbance was measured at two wave lengths of 540 nm and 690 nm. The IL-6 level in the sample was calculated based on the standard curve prepared using a recombinant human IL-6.

[5] = tested on: IL-6 production from synovial membrane cells of RA patients; assay: Inhibitory activity against IL-6 production, synovial membrane cells from RA patient; assay type: cell-based, human; settings: synovial membrane cells from RA patient
[6] = tested on: NO production from activated macrophage; assay: Inhibitory activity against NO production from mouse activated macrophage; assay type: cell-based; settings: LPS
Experimental: To BALB/c male mice was intraperitoneally administered 2 mL of a thioglycolate solution, and induced activated MΦ were collected after four days and used as NO producing cells. The cells were adjusted to 2×10^6 cells/mL and plated onto a 96-well microtiter plate at 2×10^5 cells/100 μL/well. 10 μL of 1 μg/mL of Compound Ia and LPS (lipopolysaccharide) were added thereto and incubated at 37° C. under 5% CO2 for 24 hours. 75 μL of the supernatant obtained after incubation and 75 μL of Griess reagent were incubated, and […] in the form of sodium nitrite was measured to determine the amount of NO in the supernatant.

blood NOx level = assay: Suppressive effect on blood NOx level in adjuvant arthritis rat; assay type: in vivo; settings: oral, 28 days
Experimental: An adjuvant arthritis model was prepared in the same manner as above, and the compounds were orally administered to the animals for 28 days beginning on the day before the adjuvant injection. Blood was then collected under anesthetization and the serum was ultracentrifuged. The supernatant was ultrafiltrated to prepare a sample for NOx (nitrite+nitrate) measurement.

[7] = tested on: serum amyloid protein (SAP); assay: Effect on MRL/l mouse blood acute phase protein SAP; assay type: in vivo; settings: oral, five times a week, 13 weeks
Experimental: After the last administration of the compound, blood was collected under anesthetization, and the serum was used for SAP measurement. SAP has been used as a marker for rheumatism. A 96-well plate was coated with rabbit anti-mouse SAP serum, and the serum to be tested was then added to the plate and incubated for 2 hours. After addition of sheep anti-mouse SAP serum, a rabbit anti-sheep IgG antibody labeled with alkaline phosphatase and then a substrate were added to the plate, and OD of developed color was measured at 405 nm.

[8] = tested on: articular destruction in adjuvant arthritis; assay: Rat adjuvant arthritis: inhibitory effect against articular destruction (X-ray score); assay type: in vivo
Experimental: as §1
The right and left hind legs of the arthritis rats used in the above experiments were radiographed using a soft X-ray radiation and evaluated by the X-ray observation score for the bone destruction in the arthrosis. The effects were numerically evaluated by grading the articular destruction from 0 to 3 (0: normal; 1: low degree of articular and bone destruction; 2: medium degree of articular and bone destruction, and neogenesis of cartilage; 3: strong articular and bone destruction), and the efficacy in the drug-administered group was determined in comparison with the vehicle-administered group according to Wilcoxon U-test (*p<0.05, **p<0.01)(FIG. 2).

- IC50 (PGE2 production): 0.21 nM
- IC50 [2]: 20000 nM
- IC50 [3]: 1.3 nM
- IC50 [5]: 10000 nM
- IC50 ([6]; mouse activated macrophage, 24 hours): 3000 nM
Compound: CCN1CC/C(=C\c2cc(C(C)(C)C)c(O)c(C(C)(C)C)c2)S1(=O)=O [Compound Ia, (E)-2-Ethyl-5-(3,5-di-tert-butyl-4-hydroxy)benzylidene-1,2-isothiazolidine-1,1-dioxide]
- dose with dose-dependent and significant inhibitory effect against articular swelling, curative effect ([1]; curative): ≥ 3 mg/kg/day
- dose with dose-dependent and significant inhibitory effect against articular swelling ([1]; prophylactic, adjuvant-injected leg): ≥ 0.3 mg/kg/day
- ED30 (95% confidence limits), prophylactic effect against adjuvant articular swelling ([1]; rat, administered for 22 days after injection of the adjuvant): 0.88 (0.52-1.31) mg/kg/day
- ED30 (95% confidence limits), curative effect against adjuvant articular swelling ([1]; rat, administered from Day 15 to Day 25 after injection of the adjuvant): 2.6 (1.3-6.4) mg/kg/day
- dose with significant improving effect on the bone-articular lesions (NZB/KN mouse): ≥ 10 mg/kg/day
- dose with dose-dependent and significant inhibitory effect against the increase of the IL-6 level in the articular tissue [4]: ≥ 3 mg/kg/day
- NO^2- Production ([6]; 0.8 μM compound, 24 hours): 27.3 ± 0.94 μM/2 × 10^5 cells
- NO^2- Production ([6]; 3.1 μM compound, 24 hours): 12.3 ± 2.50 μM/2 × 10^5 cells
- NO^2- Production ([6]; 12.5 μM compound, 24 hours): <1.0*** μM/2 × 10^5 cells
- NO^2- Production ([6]; 50 μM compound, 24 hours): <1.0*** μM/2 × 10^5 cells
- NO^2- Production ([6]; 100 μM compound, 24 hours): <1.0*** μM/2 × 10^5 cells
- concentration at which NO production was inhibited in a dose-dependent manner ([6]; mouse activated macrophage): 0.8 to 12.5 µM
- dose with dose-dependent and significant inhibitory effect on the increase of blood NOx level (blood NOx level): ≥ 3 mg/kg/day
- effect on blood SAP ([7]; 50 mg/kg/day): significant results
- effect on blood SAP ([7]; 2-50 mg/kg/day): repressive tendency in a dose-dependent manner
- dose with dose-dependent and significant inhibitory effect against the articular destruction ([8]; adjuvant-injected leg): ≥ 3 mg/kg/day
- dose with dose-dependent and significant inhibitory effect against the articular destruction ([8]; non-injected leg): ≥ 1 mg/kg/day

Reference: patent US6743923B2, “Antirheumatic agent” (Shionogi & Co., Ltd., priority 1997, dated 2004)
